In patent publication US20240140986A1, “SYNTHETIC URSOLIC ACID DERIVATIVES AND METHODS OF USE THEREOF” (REATA PHARMACEUTICALS, INC., priority 2021, published 2024):
Read-outs that look alike come from different tables or passages of the source.

Columns and labels:
[1] = test system: IFNγ-induced NO production in RAW 264.7 cells; experiment: Nitric Oxide Suppression Assay (IFNγ-induced NO, Griess nitrite readout); type: cell-based, mouse; details: for IC50: Mus musculus; for Avg NO IC50 Relative to RTA402 (fold): Table 2, ratio to RTA402
Procedure: Tissue Culture: RAW 264.7, a mouse macrophage cell line, was obtained from American Type Culture Collection (Manassas VA) and maintained in the log phase of growth in Roswell Park Memorial Institute Medium 1640 (RPMI 1640) supplemented with 10% heat inactivated fetal bovine serum and 1% penicillin-streptomycin. Cells were cultured and maintained in a humidified incubator at 37° C. under 5% C02. Cells were sub-cultured every 2-4 days. All cell culture supplies were obtained from Life Technologies (Grand Island, NY) and VWR (Radnor, PA).
Nitric Oxide Suppression Assay. RAW 264.7 cells were plated 1 day in advance of experimental treatments at a concentration of 30,000 cells per well onto Falcon-96 well clear bottom plates (Corning, NY) in a total volume of 200 μL per well using RPMI 1640 supplemented with 0.5% fetal bovine serum and 1% penicillin-streptomycin. The next day, cells were pretreated with compounds serially diluted from 1000×stocks. All compounds were dissolved in dimethyl sulfoxide (DMSO) usually at 10 mM stock solutions. Compounds were subsequently diluted in DMSO and RPMI 1640. Each well received a final concentration of 0.1% DMSO. Cells were pretreated for 2 hours and incubation at 37° C., followed by treatment with 20 ng/mL of interferon gamma (R&D Systems, Minneapolis, MN) per well for 24 hours. The next day, a nitrite standard was serially diluted from 100 μM to 1.6 μM in RPMI 1640. Afterwards, 50 μL of cell culture supernatant was transferred from each well into a new Falcon-96 well clear bottom plate. Nitrite was measured as surrogate for nitric oxide using Promega's Griess Detection Kit #G2930 (Madison, WI) which involves the addition of 50 μL of the provided sulfanilamide solution to each well of the transferred cell culture supernatant and standards, followed by a 10-minute incubation at room temperature. Next, 50 μL of the provided N-1-napthylethylenediamine dihydrochloride (NED) solution was added to the sulfanilamide reaction and incubated for 10 minutes at room temperature in the dark. Afterwards, air bubbles were removed using ethanol vapor and absorbance was measured using a Spectramax M2e plate reader with a wavelength set to 525 nm. Viability was assessed using WST-1 cell proliferation reagent from Roche (Basel, Switzerland). After media was removed for the Nitric Oxide suppression assay, 15 μL of WST-1 reagent was added to each well of cells. Plates were briefly mixed on an orbital shaker and the cells were incubated at 37° C. for 30-90 minutes. Absorbance was measured using a Spectramax M2e plate reader with wavelengths set to 440 nm and 700 nm.
For the ability of compounds to suppress the increase in nitric oxide release caused by interferon gamma, the absolute amount of nitrite that was produced in each well was extrapolated from the nitrite standards using a linear regression fit. All values were then normalized to the DMSO-interferon gamma treated wells and plotted as percent nitric oxide. IC50 values were calculated using Excel and/or GraphPad Prism (San Diego, CA).

[2] = test system: Nrf2 / ARE-dependent luciferase in AREc32 reporter cell line; experiment: AREc32 luciferase reporter activation (Nrf2 induction); type: cell-based, human; details: for EC (2-fold): Homo sapiens, Arec32; for Relative Avg AREc32 EC2X Relative to RTA402 (fold): ratio to RTA402
Procedure: Effect on Ludferase Reporter Activation. Nrf2 is a transcription factor that binds to the antioxidant response element (ARE) sequence in the promoter regions of its target genes. AREc32 reporter cell line (derived from human breast carcinoma MCF7 cells) was obtained was from CXR Bioscience Limited (Dundee, UK) and cultured in DMEM (low glucose) supplemented with 10% FBS, 1% penicillin/streptomycin, and 0.8 mg/ml Geneticin (G418). This cell line is stably transfected with a luciferase reporter gene under the transcriptional control of eight copies of the rat GSTA2 ARE sequence (5′-GTGACAAAGCA-3′) (Wang et al., 2006). Expression of Firefly luciferase from this reporter plasmid is controlled by binding of Nrf2 to these ARE sequences. Measurement of ARE-dependent luciferase activity allows quantitative assessment of Nrf2 induction. AREc32 cell line has previously been used in studies characterizing different Nrf2 activators (Dinkova-Kostova & Wang, 2011; Roubalová et al., 2016; Roubalová et al, 2017; Wu et al, 2012).
The effect of several compounds disclosed herein on luciferase reporter activation was assessed in the AREc32 reporter cell line (see Table 10 and Table 11). This cell line is derived from human breast carcinoma MCF-7 cells and is stably transfected with a luciferase reporter gene under the transcriptional control of eight copies of the antioxidant response element from the rat Gsta2 gene, an Nrf2 target gene (Frilling et al., 1990). AREc32 cells were plated in black 96-well plates in 200 μL media at 20,000 cells per well. Twenty-four hours after plating, cells were treated with vehicle (DMSO) or test compounds at concentrations ranging from 0.03 to 1000 nM for nineteen hours. Media was removed and 100 μL of 1:1 mixture of the One-Glo Luciferase assay reagent and culture medium was added to each well. After incubation for 5 min at room temperature, the luminescence signal was measured on a PHERAstar plate reader. The EC2X value was determined using Excel and GraphPad Prism software. The fold increase in luminescence signal for cells treated with each concentration of compound relative to cells treated with vehicle was determined and a dose-response curve was generated. The dose-response curve was fit using nonlinear regression analysis and used to extrapolate the EC2X value. The EC2X value is defined as the concentration of test compound required to increase the luminescence signal 2-fold above levels in vehicle-treated samples.

[3] = RAW264.7, Table 2, RAW 264.7 cells, 2 h pretreatment, 20 ng/mL interferon gamma 24 h, read-out: Avg NO IC50 (nM) (Mean ± SD)
[4] = Table 2, concentration increasing luminescence 2-fold above vehicle, 19 h treatment, read-out: Avg AREc32 EC2X (nM) (Mean ± SD)
[5] = RAW264.7, Table 3, oleanolic acid derivative analogs, read-out: Avg NO IC50
[6] = Table 3, oleanolic acid derivative analogs, read-out: Avg ARE EC-2X
[7] = RAW264.7, Table 3, ursolic acid derivatives, read-out: Avg NO IC50 (nM) (Mean ± SD)
[8] = Table 3, ursolic acid derivatives, read-out: Avg ARE EC-2X (nM) (Mean ± SD)

Row | IC50 [1, 3] | Avg NO IC50 Relative to RTA402 (fold) [1] | IC50 [1, 7] | Structure (SMILES) | EC (2-fold) [2, 4] | Relative Avg AREc32 EC2X Relative to RTA402 (fold) ([2]; Table 2) | IC50 [1, 5] | EC (2-fold) [2, 6] | EC (2-fold) [2, 8]
1 | 108 ± 19 nM | 36.5 ± 16.9 fold |  | C[C@@H]1[C@H]2[C@H]3[C@H]4C[C@@H]5[C@@]6(C)C=C(C#N)C(=O)C(C)(C)[C@@H]6CC[C@@]5(C)[C@]3(C)CC[C@]2(CC[C@H]1C)C(=O)O4 [Compound T102] | 338 ± 11 nM | 31.2 ± 5.3 fold |  |  | 
2 | 4.69 ± 1.87 nM | 2.44 ± 1.39 fold |  | CNC(=O)C[C@]12CC[C@@H](C)[C@H](C)[C@H]1[C@H]1C(=O)C=C3[C@@]4(C)C=C(C#N)C(=O)C(C)(C)[C@@H]4CC[C@@]3(C)[C@]1(C)CC2 [Compound T91] | 2.96 ± 0.77 nM | 0.359 ± 0.078 fold |  |  | 
3 | 23.4 ± 5.4 nM | 8.76 ± 3.40 fold | 23.4 ± 5.4 nM | C[C@@H]1[C@H]2[C@H]3C(=O)C=C4[C@@]5(C)C=C(C#N)C(=O)C(C)(C)[C@@H]5CC[C@@]4(C)[C@]3(C)CC[C@@]2(n2ccnc2)CC[C@H]1C [Compound T62] | 19.7 ± 2 nM | 1.55 ± 0.28 fold |  |  | 19.7 ± 2 nM
4 | 35.8 ± 6.1 nM | 14.80 ± 8.92 fold |  | C[C@@H]1[C@H]2[C@H]3C(=O)C=C4[C@@]5(C)C=C(C#N)C(=O)C(C)(C)[C@@H]5CC[C@@]4(C)[C@]3(C)CC[C@@]2(n2cccn2)CC[C@H]1C [Compound T64] | 64 ± 7.6 nM | 6.07 ± 0.87 fold |  |  | 
5 | 16.9 ± 5 nM | 4.94 ± 1.27 fold | 16.9 ± 5 nM | Cc1nnc([C@]23CC[C@@H](C)[C@H](C)[C@H]2[C@H]2C(=O)C=C4[C@@]5(C)C=C(C#N)C(=O)C(C)(C)[C@@H]5CC[C@@]4(C)[C@]2(C)CC3)o1 [Compound T69] | 8.08 ± 1.98 nM | 0.673 ± 0.139 fold |  |  | 8.08 ± 1.98 nM
6 | 5.97 ± 2.71 nM | 3.68 ± 1.63 fold |  | C[C@@H]1[C@H]2[C@H]3C(=O)C=C4[C@@]5(C)C=C(C#N)C(=O)C(C)(C)[C@@H]5CC[C@@]4(C)[C@]3(C)CC[C@@]2(CC(=O)NC2CC2)CC[C@H]1C [Compound T92] | 4.33 ± 0.75 nM | 0.555 ± 0.181 fold |  |  | 
7 | 12.2 ± 3.5 nM | 3.79 ± 1.16 fold |  | C[C@@H]1[C@H]2[C@H]3C(=O)C=C4[C@@]5(C)C=C(C#N)C(=O)C(C)(C)[C@@H]5CC[C@@]4(C)[C@]3(C)CC[C@@]2(F)CC[C@H]1C [Compound T67] | 11.5 ± 1.6 nM | 0.984 ± 0.119 fold |  |  | 
8 | 19.1 ± 4.9 nM | 12.6 ± 1.9 fold |  | CNC(=O)CC[C@]12CC[C@@H](C)[C@H](C)[C@H]1[C@H]1C(=O)C[C@@H]3[C@@]4(C)C=C(C#N)C(=O)C(C)(C)[C@@H]4CC[C@@]3(C)[C@]1(C)CC2 [Compound T104] | 29.5 ± 2.5 nM | 3.15 ± 0.64 fold |  |  | 

The remaining lines, values behind:

Row | Structure (SMILES) | IC50 [1, 3] | Avg NO IC50 Relative to RTA402 (fold) [1] | IC50 [1, 7] | EC (2-fold) [2, 4] | Relative Avg AREc32 EC2X Relative to RTA402 (fold) ([2]; Table 2) | IC50 [1, 5] | EC (2-fold) [2, 6] | EC (2-fold) [2, 8]
9 | CC1(C)CC[C@]2(CN3CCC3=O)CC[C@]3(C)[C@H](C(=O)C=C4[C@@]5(C)C=C(C#N)C(=O)C(C)(C)[C@@H]5CC[C@]43C)[C@@H]2C1 [CC14, reference compound] |  |  |  |  |  | 1.1 nM | 5.24 nM | 
10 | CNC(=O)NC[C@]12CC[C@@H](C)[C@H](C)[C@H]1[C@H]1C(=O)C=C3[C@@]4(C)C=C(C#N)C(=O)C(C)(C)[C@@H]4CC[C@@]3(C)[C@]1(C)CC2 [Compound T26] | 5.12 ± 2.22 nM | 1.71 ± 0.70 fold | 5.12 ± 2.22 nM | 2.23 ± 0.29 nM | 0.177 ± 0.020 fold |  |  | 2.23 ± 0.29 nM
11 | [2H]C([2H])([2H])C(=O)NC[C@]12CCC(C)(C)C[C@H]1[C@H]1C(=O)C=C3[C@@]4(C)C=C(C#N)C(=O)C(C)(C)[C@@H]4CC[C@@]3(C)[C@]1(C)CC2 [CC24, reference compound] |  |  |  |  |  | 0.5 nM | 2.96 nM | 
12 | Cc1nnc([C@]23CCC(C)(C)C[C@H]2[C@H]2C(=O)C=C4[C@@]5(C)C=C(C#N)C(=O)C(C)(C)[C@@H]5CC[C@@]4(C)[C@]2(C)CC3)o1 [CC69, reference compound] |  |  |  |  |  | 2.2 nM | 9.81 nM | 
13 | C[C@@H]1[C@H]2[C@H]3C(=O)C=C4[C@@]5(C)C=C(C#N)C(=O)C(C)(C)[C@@H]5CC[C@@]4(C)[C@]3(C)CC[C@@]2(c2nc(COC(C)(C)C)no2)CC[C@H]1C [Compound T9] | 11.3 ± 2.4 nM | 5.37 ± 0.71 fold |  | 19.3 ± 4.5 nM | 1.84 ± 0.20 fold |  |  | 
14 | CC1(C)CC[C@]2(Cn3ccnn3)CC[C@]3(C)[C@H](C(=O)C=C4[C@@]5(C)C=C(C#N)C(=O)C(C)(C)[C@@H]5CC[C@]43C)[C@@H]2C1 [CC50, reference compound] |  |  |  |  |  | 1.1 nM | 9.57 nM | 
15 | CNC(=O)N(C)C[C@]12CCC(C)(C)C[C@H]1[C@H]1C(=O)C=C3[C@@]4(C)C=C(C#N)C(=O)C(C)(C)[C@@H]4CC[C@@]3(C)[C@]1(C)CC2 [CC36, reference compound] |  |  |  |  |  |  | 7.23 nM | 
16 | CC1(C)CC[C@]2(CN3CCC3)CC[C@]3(C)[C@H](C(=O)C=C4[C@@]5(C)C=C(C#N)C(=O)C(C)(C)[C@@H]5CC[C@]43C)[C@@H]2C1 [CC55, reference compound] |  |  |  |  |  |  | 22 nM | 
17 | Cc1cn(C[C@]23CCC(C)(C)C[C@H]2[C@H]2C(=O)C=C4[C@@]5(C)C=C(C#N)C(=O)C(C)(C)[C@@H]5CC[C@@]4(C)[C@]2(C)CC3)nn1 [CC49, reference compound] |  |  |  |  |  |  | 13.8 nM | 
18 | CC1(C)CC[C@]2(N3CCCC3=O)CC[C@]3(C)[C@H](C(=O)C=C4[C@@]5(C)C=C(C#N)C(=O)C(C)(C)[C@@H]5CC[C@]43C)[C@@H]2C1 [CC58, reference compound] |  |  |  |  |  |  | 37.9 nM | 
19 | CC1(C)CC[C@]2(c3nc(C4CC4)no3)CC[C@]3(C)[C@H](C(=O)C=C4[C@@]5(C)C=C(C#N)C(=O)C(C)(C)[C@@H]5CC[C@]43C)[C@@H]2C1 [CC2, reference compound] |  |  |  |  |  |  | 43.7 nM | 
